Common to all, as to assay: NCI anticancer screen, dose series, 48 h
Experiment [1] has as its system A549.
Experiment [2] relates to ACHN.
Experiment [3] deals with COLO 205.
Experiment [4] has as its system EKVX.
In experiment [5] the test system is HCC 2998.
For experiment [6], the system named is HCT-15.
In experiment [7] the test system is HL-60.
Experiment [8] has as its system IGROV-1.
Experiment [9] has as its system K562.
The test system of experiment [10] is KM12.
Experiment [11] relates to NCI-H226.
For experiment [12], the system named is NCI-H522.
Experiment [13] relates to OVCAR-4.
Experiment [14] deals with SF-539.
For experiment [15], the system named is SK-MEL-2.
Experiment [16] has as its system SK-OV-3.
Experiment [17] concerns SNB-75.
Experiment [18] concerns TK-10.
Experiment [19] deals with UACC-257.
Experiment [20] deals with UACC-62.

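Growth conditions: 96-well plates. Treatment: test compound, 48 hours, 5 concentrations. Analysis: linear interpolation between bracketing concentrations; unreached endpoints set to highest concentration. GI50 marks 50% less growth.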 The source made the active and inactive calls. No stated cut-off is given here; in the data, active = GI50 up to about 1.1 µM and inactive = higher.

With `O=C(Nc1ccccc1Br)c1cccc([N+](=O)[O-])c1O`, the GI50 in [1] was 3.37 µM (inactive); in experiment [2], 3.67 µM (inactive); in [3] it was 3.66 µM (inactive); in experiment [4], 3.04 µM (inactive); in experiment [5], 2.49 µM (inactive); in experiment [6], 4.6 µM. Also, the GI50 is 2.9 µM (inactive) in experiment [7]; 2.88 µM (inactive) in experiment [8]; 3.13 µM (inactive) in experiment [9]; 4.26 µM (inactive) in [10]; 3.3 µM (inactive) in experiment [11]; 2.03 µM (inactive) in [12]. The GI50 was 3.01 µM (inactive) in [13]; 5.61 µM (inactive) in [14]; 6.9 µM (inactive) in experiment [15]; 3.95 µM (inactive) in [16]; 5.25 µM (inactive) in [17]; 1.54 µM (inactive) in [18]. In addition, the GI50 is 2.01 µM (inactive) in experiment [19] and 1.91 µM (inactive) in [20].

The values above are taken from ChEMBL document CHEMBL1201862, “PubChem BioAssay data set” (2004).
